# Source: patent US20240252432A1, “COMPOSITIONS, METHODS AND SYSTEMS FOR AEROSOL DRUG DELIVERY” (ASTRAZENECA PHARMACEUTICALS LP, priority 2021, published 2024)
# Like-named read-outs stand apart in the source and are kept apart here.
# How the values were obtained:
# [1] = Particle size distribution by laser diffraction; assay type: physicochemical
# From the text: When referred to herein, the term “optical diameter” indicates the size of a particle as measured by the Fraunhofer diffraction mode using a laser diffraction particle size analyzer equipped with a dry powder dispenser (e.g., Sympatec GmbH, Clasthal-Zellerfeld, Germany).
# Suspending particles were manufactured by spray drying an emulsion of PFOB (perfluorooctyl bromide) and water stabilized by DSPC (1,2-Distearoyl-sn-Glycero-3-Phosphocholine). […] The particle size distribution of the suspending particles was determined by laser diffraction.
# Active agent particles formed of budesonide, 16,17-(butylidenebis(oxy))-11,21-dihydroxy-(11-β,16-α)-pregna-1,4-diene-3,20-dione, were formed by micronizing budesonide using a jet mill. The particle size distribution of the budesonide (BD) was determined by laser diffraction.
# [2] = Aerodynamic particle size distribution by NGI of BFF formulations (Example 4); assay type: physicochemical; conditions: dual co-suspension of budesonide and formoterol in HFO-1234ze(E); stored valve down, protected, 25° C./60% RH
# [3] = cited from earlier work
# [4] = Aerodynamic particle size distribution by NGI of BDA formulations (Example 5); assay type: physicochemical; conditions: dual co-suspension of budesonide and albuterol in HFO-1234ze(E); stored valve down, protected, 25° C./60% RH
Compound,optical diameter below which 50% by volume of the particles lie [1],optical diameter below which 90% by volume of the particles lie [1],Water Solubility in Propellant ([3]; @25),further results
"COc1ccc(CC(C)NCC(O)c2ccc(O)c(NC=O)c2)cc1.O=C(O)/C=C/C(=O)O (racemic) [formoterol fumarate, (±)-2-hydroxy-5-[(1RS)-1-hydroxy-2-[[(1RS)-2-(4-methoxyphenyl)-1-methylethyl]-amino]ethyl]formanilide fumarate]",smaller than 1.6 μm,smaller than 3.9 μm,–,–
"CCCCCCCCCCCCCCCCCC(=O)OC[C@H](COP(=O)([O-])OCC[N+](C)(C)C)OC(=O)CCCCCCCCCCCCCCCCC [DSPC, 1,2-Distearoyl-sn-glycero-3-phosphocholine]",–,–,–,stability of aPSD by NGI [2]: stable for twelve months
"FCC(F)(F)F [HFA-134a, 1,1,1,2-tetrafluoroethane]",–,–,1100@25 ppm,–
"FC(C(F)(F)F)C(F)(F)F [HFA-227ea, 1,1,1,2,3,3,3-Heptafluoropropane]",–,–,610@25 ppm,–
"CC(F)F [HFC-152a, 1,1-Difluoroethane]",–,–,2100@25 ppm,–
"C=C(F)C(F)(F)F [HFO-1234yf, 2,3,3,3-Tetrafluoropropene]",–,–,–,Water Solubility in Propellant ([3]; @24): 200@24 ppm
"FC=CC(F)(F)F [HFO-1234ze, 1,3,3,3-tetrafluoropropene]",–,–,–,Water Solubility in Propellant ([3]; @20): 225@20 ppm
"CCCC1O[C@@H]2C[C@H]3[C@@H]4CCC5=CC(=O)C=C[C@]5(C)[C@H]4[C@@H](O)C[C@]3(C)[C@]2(C(=O)CO)O1 (stereo partly drawn) [budesonide, 16,17-(butylidenebis(oxy))-11,21-dihydroxy-(11-β,16-α)-pregna-1,4-diene-3,20-dione]",–,–,–,stability of aPSD by NGI [4]: stable for twelve months; stability of aPSD by NGI [2]: stable for twelve months
"C[N+]1(C)CCC(OC(=O)C(O)(c2ccccc2)C2CCCC2)C1.[Br-] (centres unmarked) [glycopyrrolate, Pyrrolidinium, 3-((cyclopentylhydroxyphenylacetyl)oxy)-1,1-dimethyl-, bromide]",smaller than 2.1 μm,smaller than 5 μm,–,–
albuterol sulfate,smaller than 1.5 μm,smaller than 3.3 μm,–,–
